Reference: patent EP3454861B1, “BENZOXAZINE OR QUINAZOLINE DERIVATIVES FOR USE IN THE TREATMENT OF ALZHEIMER'S DISEASE” (Biocodex, priority 2016, dated 2017)

Key:
Format in all cases: in vivo, souris
Caspase-3 = experiment: ELISA of Caspase-3 in mouse hippocampus after Aβ25-35
Source text: (§1) Le 1^er jour : une version « mélangée » (scrambled) du peptide amyloïde β25-35 (Sc.Aβ, témoin négatif) ou le peptide amyloïde β25-35 (Aβ25-35) est injecté par voie intra-cérébroventriculaire (ICV) (le peptide Aβ25-35 provoque l'intoxication cellulaire). Entre le 1^er jour et le 10^ème jour, les traitements sont administrés une fois par jour par voie intrapéritonéale (IP).
(§2) A la fin de la session de rétention d'évitement passif, le 10^ème jour, les animaux sont sacrifiés par décapitation. L'hippocampe et le cortex frontal sont disséqués et congelés dans l'azote liquide. L'hippocampe est utilisé pour mesurer le taux de peroxydation lipidique à l'aide d'une méthode colorimétrique et pour évaluer les taux de 4 marqueurs biochimiques par des tests ELISA. Le cortex est conservé à -80°C en attente d'analyses supplémentaires. Les plasmas sont également conservés en attente d'analyses supplémentaires. Les échantillons biologiques sont jetés après 3 mois.
(§3) Pour tous les dosages, les […] sont homogénéisés, après décongélation, dans un tampon Tris (Tris 50 mM, 150 mM NaCl, pH 7,5) et traités par ultrasons pendant 20 secondes. […] Pour chaque dosage, l'absorbance est lue à 450 nm et la concentration est calculée en utilisant la courbe standard. Les résultats sont exprimés en pg ou ng de marqueur par mg de tissu et en pourcentage de solution Sc.Aβ + véhicule. 6 échantillons par groupe (n = 36 kits ELISA) sont dosés en double.

Bcl2 = experiment: ELISA of Bcl2 in mouse hippocampus after Aβ25-35
Source text: as §1, §2, §3

Bax = experiment: ELISA of Bax in mouse hippocampus after Aβ25-35
Source text: as §1, §2, §3

[1] = tested on: modèle murin de maladie d'Alzheimer par administration du peptide amyloïde β25-35; experiment: Spontaneous alternation test in the Y-maze (spatial working memory), Aβ25-35 mouse model; settings: all doses tested (12,5, 25, 50 mg/kg per day IP), day 8, Aβ25-35 9 nmol ICV
Source text: Soixante-douze souris males Swiss (30-35 grammes) sont utilisées. Six groupes sont constitués et soumis à différents traitements : Tableau 1. Groupes de traitement.
as §1
Du 8^ème au 10^ème jour, deux tests comportementaux sont effectués : • Procédure d'alternance spontanée dans le labyrinthe en Y (évaluation de la mémoire spatiale de travail) le 8^ème jour, soit 7 jours après l'injection de peptide; • Réponse d'évitement passif (évaluation de la mémoire contextuelle à long terme) avec l'entrainement le 9^ème jour et la séance de rétention le 10^ème jour.
Chaque souris est anesthésiée avec 2,5% d"isoflurane. Le peptide Aβ25-35 (9 nmol/souris) ou le peptide Sc.Aβ (9 nmol/souris) est injecté par voir ICV, dans un volume final de 3 µL/souris. […]

[2] = Aβ25-35/Etifoxine 12.5 mg/kg IP

Compound: CCNC1=Nc2ccc(Cl)cc2C(C)(c2ccccc2)O1 (stereo not shown) [Etifoxine, chlorhydratede 6-chloro-2-éthylamino-4-méthyl-4-phényl-4H-[3,1]benzoxazine]
- Expression CASP-3 (Caspase-3; [2]): 136,8 ± 7,2 % de Sc.Aβ/V
- Expression CASP-3 (Caspase-3; Aβ25-35/Etifoxine 25 mg/kg IP): 127,3 ± 10,8 % de Sc.Aβ/V
- Expression CASP-3 (Caspase-3; Aβ25-35/Etifoxine 50 mg/kg IP): 109,9 ± 5,6 % de Sc.Aβ/V
- Taux de protéine Bcl2 (Bcl2; [2]): 97,2 ± 2,1 % de Sc.Aβ/V
- Taux de protéine Bcl2 (Bcl2; Aβ25-35/Etifoxine 25 mg/kg IP): 99,4 ± 2,3 % de Sc.Aβ/V
- Taux de protéine Bcl2 (Bcl2; Aβ25-35/Etifoxine 50 mg/kg IP): 102,3 ± 3,2 % de Sc.Aβ/V
- Taux de protéine Bax (Bax; [2]): 180,1 ± 7,4 % de Sc.Aβ/V
- Taux de protéine Bax (Bax; Aβ25-35/Etifoxine 25 mg/kg IP): 132,6± 7,5 % de Sc.Aβ/V
- Taux de protéine Bax (Bax; Aβ25-35/Etifoxine 50 mg/kg IP): 99,9 ± 4,2 % de Sc.Aβ/V
- déficits d'apprentissage (alternance spontanée, mémoire spatiale) [1]: atténue de façon significative les déficits d'apprentissage
